Reference: patent publication US20190367449A1, “PHENYLCREATINE, ITS USE AND METHOD FOR ITS PRODUCTION” (priority 2017, published 2019)

What was measured:
white mongrel mice = experiment: Endurance of mice in the treadmill test (running to complete exhaustion); format: in vivo; conditions: for Running time of mice (M ± m): treadmill 29-31 m/min, 1 hour after administration
Protocol: In order to find out whether phenylcreatine is a functional analogue of creatine, and also how much its effect is related to the strength of creatine, the functional state of the mice was assessed, namely, the body weight was measured, activity and endurance in the test on white mongrel mice were assessed-males weighing 18-22 g. Two experimental groups of mice and one control group (10 mice in each group) were selected. Initially, the animals were of equal mass. The animals were kept in accordance with the rules adopted by the European Convention for the Protection of Vertebrates used for experimental and other purposes (European Convention for the Protection of Vertebrates used for Experiments or for Other Scientific Purposes (EST No. 123), Strasbourg, 18 March 1986, M., 1990, 12 pp.). Animals were kept in standard vivarium conditions. The animals were killed by decapitation in accordance with the “Rules for carrying out work using experimental animals”, approved by order of the Ministry of Health of the USSR No. 742 of 13 Nov. 1984 (Bolshakov […] Didactic and ethical aspects of research on biomodels and on laboratory animals//Qualitative clinical practice. 2002. No. 1. P.58-61). Within 20 days, the animals received an aqueous solution of creatine in a dosage of 0.3 mg per gram of weight. […] Upon administration, the drug was dissolved in 0.3 ml of water and injected into mice through a probe into the stomach daily in the morning, on an empty stomach. The animals of the control group received a similar volume of water. Phenylcreatine was also administered for 20 days in an amount of 50 mg per kg of body weight. Endurance of mice under physical exertion was assessed according to a standard procedure (Emirova L R Potention by […] of the action of medicinal substances that increase the endurance of athletes: dis . . . medical doctor: 14.00.25. M., 2004. 125 pp.) for the duration of running in the treadmill test. The animals of each group were subjected to daily training loads in a high load power mode, which was modelled by running on a treadmill at a speed of 29-31 m/min. The duration of daily mice training was 5 minutes. Endurance of mice was tested on the 1st, 5th, 10th, 15th, 20th and 25th days of training against the background of administration of drugs (or distilled water in the control). Endurance testing was conducted under the same conditions as training. Endurance was tested 1 hour after drug administration (Petrenko E R Comparative pharmacological study of adaptogenic properties of ginseng preparations: dis . . . candidate of biological sciences: 14.00.25., St. Petersburg, 1998. 126 pp.) until fatigue, the criterion of which was the lack of reaction of mice to stimulation of the legs and tail by electric current (Stratienko E N Influence of phenylethyl substituted derivatives of 3-oxypridine on the physical working capacity of mice under conditions of hypobaric hypoxia: dis . . . . Medical Candidate of Sciences Bryansk, 1996. DSP. 201 pp.). Running time was recorded in seconds. The study was carried out at rest, an hour after the administration of creatine or phenylcreatine, and immediately after the end of the run in the treadmill. Statistical processing of data was carried out in the program Statistica, for all data groups, using the Student's criterion. The following results were obtained concerning the effect of the intake of creatine and phenylcreatine on the endurance of mice. Dosages of 10 mg of phenylcreatine per animal and 300 mg of creatine per animal were used.

[1] = Stability of phenylcreatine compared to creatine in blood serum (RP-HPLC peak areas); format: in vitro ADME, human
Protocol: The study of the stability of phenylcreatine and creatine in aqueous solution and in human blood was carried out as follows. For the preparation of solutions of test substances on an analytical balance the exactly weighed phenylcreatine and creatine were taken. The calculated amount of double-distilled water was added to them to obtain a concentration of 1 mg/ml. A part of the solution was diluted 10 times, and the sample was immediately analyzed. Further, that solution was kept at room temperature and after 3 hours the analysis was repeated. Further according to the method described in Dunnett, Harris & Orme (1991) Reverse phase ion-pairing high performance liquid chromatography of phosphocreatine, creatine and creatinine in equine muscle. Scand. J. Clin. Lab. Invest. 51, 137-141, page 139, aliquot (c), creatinine, creatine and phosphocreatine were removed from the samples used for obtaining of the blood serum for mixing, to obtain more accurate results. 1 ml of water or prepared according to the method above blood serum was added to 200 μl of a solution in water of initial substance with a concentration of 2-3 mg/ml, shaken and a sample of 200 μl volume was immediately taken and initial concentration was analyzed. Then the solution was placed in a vibration thermostat at 37° C. and an aliquot of 200 μl was taken in 0.5, 1 and 3 hours of incubation. 20 μl of a 10% solution of trichloroacetic acid was added to the selected sample and kept for 15 min at a temperature of minus 24° C., centrifuged at 6000 g for 5 min to precipitate the plasma proteins, supernatant was collected and its analysis was conducted. The study of the stability of phenylcreatine compared to creatine in an aqueous solution and blood was carried out using reversed-phase HPLC using a chromatographic system Agilent 1220 Infinity LC System (USA). To assess the stability of the analytes, the peak areas of the compounds were compared at the beginning of the experiment and at selected intervals (Table 2).

[2] = 15th day of the study, control 1.1 times
[3] = 20th day of the study, control 1.4 times
[4] = 25th day of research, control 1.7 times
[5] = 1 d, 10 mg phenylcreatine or 300 mg creatine per animal
[6] = 0 h, initial, peak area relative to the beginning of the experiment

Compound | Increase of running time to total fatigue (white mongrel mice; [2]) [times] | Increase of running time to total fatigue (white mongrel mice; [3]) [times] | Increase of running time to total fatigue (white mongrel mice; [4]) [times] | Running time of mice (M ± m) (white mongrel mice; [5]) [s] | Running time of mice (M ± m) (white mongrel mice; 5 d) [s] | Running time of mice (M ± m) (white mongrel mice; 10 d) [s] | Running time of mice (M ± m) (white mongrel mice; 15 d) [s] | Running time of mice (M ± m) (white mongrel mice; 20 d) [s] | Running time of mice (M ± m) (white mongrel mice; 25 d) [s] | Speed of increase of the effect relative to the group receiving creatine (white mongrel mice; mice treadmill) [times] | Stability in a blood serum [1, 6] [%] | Stability in a blood serum ([1]; 0.5 h incubation at 37° C.) [%] | Stability in a blood serum ([1]; 1 h incubation at 37° C.) [%] | Stability in a blood serum ([1]; 3 h incubation at 37° C.) [%] | Concentration in the blood (in words) ([1]; for 3 hours)
N=C(N)N(CC(=O)O)Cc1ccccc1 [phenylcreatine, N-benzyl-N-carbamimidoylglycine] | 6.4 | 6.9 | 6.7 | 588.23 ± 25 | 747.23 ± 17.06 | 1874.12 ± 114.43 | 3756.77 ± 97.02 | 4076.45 ± 276.57 | 3981.4 ± 202.8 | 2 | 100 | 100 | 99 | 96 | remained practically unchanged
CN(CC(=O)O)C(=N)N [creatine, 2-(methylguanine)-ethane acid] | 2.8 | 4.5 | 5.6 | 626.00 ± 32.25 | 772.60 ± 33.07 | 775.80 ± 37.01 | 1811.30 ± 85.82 | 2794.70 ± 103.22 | 3697.5 ± 1373 | – | 100 | 98 | 67 | 52 | –
